Earlier results on four compounds are cited in article PMC12676331 (ACS Omega, 2025).

One series relates to rod opsin mutants. To be noted: in vitro; ref number not given.
For series [1], the system named is T17M Rho mouse model of RP. To be noted: ref number not given.
The next series concerns G-protein. To be noted: in vitro and in vivo; ref number not given.
For the next series, the system named is P23H rod opsin. Conditions: ref number not given.

With `CC(=C/C(=O)O)/C=C/C=C(\C)C1C=C2C(C)(C)CCCC2(C)O1` (stereo not drawn) [13-cis-5,8-ERA, 8-epoxy-13-cis-retinoic acid], the “folding and membrane trafficking of rod opsin mutants” value with rod opsin mutants is “promoted proper folding and membrane trafficking”.
In the case of `CC1=C(/C=C/C(=O)N2CCN(C(N)=O)CC2)C(C)(C)CCC1` [SRD005825], the “folding and membrane trafficking of rod opsin mutants” value in the series on rod opsin mutants is “promoted proper folding and membrane trafficking”. The photoreceptor survival entry in series [1] is “improved photoreceptor survival”.
In the case of 11-cis-6-membered-ring-retinal, the G-protein activation result in the series with G-protein is “can partially activate G-protein”.
11-cis-7-membered-ring-retinal: the G-protein activation result with G-protein is “does not activate G-protein”. The “maturation and membrane expression of P23H rod opsin” value in the series with P23H rod opsin is “improve the maturation and membrane expression of P23H rod opsin”.
